This assay deals with T1, human PTH1 receptor (Homo sapiens, UniProt Q03431).
T1 sequence (Q03431 27-593): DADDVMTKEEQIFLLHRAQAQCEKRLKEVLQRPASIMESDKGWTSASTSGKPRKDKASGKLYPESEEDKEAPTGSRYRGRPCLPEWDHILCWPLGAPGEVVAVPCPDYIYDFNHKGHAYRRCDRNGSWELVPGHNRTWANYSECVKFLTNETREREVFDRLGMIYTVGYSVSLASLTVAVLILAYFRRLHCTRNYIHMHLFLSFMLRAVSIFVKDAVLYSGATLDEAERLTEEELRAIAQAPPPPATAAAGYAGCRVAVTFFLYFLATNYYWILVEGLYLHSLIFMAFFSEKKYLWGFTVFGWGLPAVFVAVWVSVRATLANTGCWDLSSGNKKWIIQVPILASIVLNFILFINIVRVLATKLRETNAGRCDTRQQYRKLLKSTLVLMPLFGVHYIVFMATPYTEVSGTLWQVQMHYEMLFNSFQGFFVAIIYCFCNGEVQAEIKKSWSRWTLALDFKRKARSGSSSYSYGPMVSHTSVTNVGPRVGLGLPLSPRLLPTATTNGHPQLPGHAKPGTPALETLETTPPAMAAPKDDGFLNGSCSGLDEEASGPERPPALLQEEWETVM
The assay is described as follows: In vitro cAMP signal activity in HKRK-B7 cells (LLC-PK1 cells overexpressing the human PTH1 receptor). Type of assay: cell-based. As to conditions: HKRK-B7 cells; compound at 1×10^−3 M; cAMP produced as percentage of that produced by hPTH(1-34) at 100 nM.
Consider `CCCCC1CCC(C2=NC3(CCN(S(=O)(=O)/C=C/c4c(C)cc(C(=O)N5CCC(OCCOCCO)CC5)cc4C)CC3)C(=O)N2)CC1` (stereo not drawn) [Compound 1009, 2-(4-butyl-cyclohexyl)-8-[(E)-2-(4-{4-[2-(2-hydroxy-ethoxy)-ethoxy]-piperidine-1-carbonyl}-2,6-dimethyl-phenyl)-ethenesulfonyl]-1,3,8-triaza-spiro[4.5]dec-1-en-4-one], for which the “cAMP production activity (%)” value amounted to 70%.

As for `Cc1cc(C(=O)N2CCC(OC[C@H](O)CO)CC2)cc(C)c1/C=C/S(=O)(=O)N1CCC2(CC1)N=C(CCCCCCCCC(F)(F)F)NC2=O` [Compound 1010, 8-((E)-2-{4-[4-((R)-2,3-Dihydroxy-propoxy)-piperidine-1-carbonyl]-2,6-dimethyl-phenyl}-ethenesulfonyl)-2-(9,9,9-trifluoro-nonyl)-1,3,8-triaza-spiro[4.5]dec-1-en-4-one], the “cAMP production activity (%)” value is 96%.

As to `Cc1cc(N(C)C(=O)CN)cc(C)c1/C=C/S(=O)(=O)N1CCC2(CC1)N=C(c1cccc(OC(F)(F)F)c1)NC2=O` [Compound 1011, 2-Amino-N-(3,5-dimethyl-4-{(E)-2-[4-oxo-2-(3-trifluoromethoxy-phenyl)-1,3,8-triaza-spiro[4.5]dec-1-ene-8-sulfonyl]-vinyl}-phenyl)-N-methyl-acetamide], the “cAMP production activity (%)” value was determined as 17%.

In the case of `Cc1cc(N(C)C(=O)OCCO)cc(C)c1/C=C/S(=O)(=O)N1CCC2(CC1)N=C(c1cccc(OC(F)(F)F)c1)NC2=O` [Compound 1012, (3,5-Dimethyl-4-{(E)-2-[4-oxo-2-(3-trifluoromethoxy-phenyl)-1,3,8-triaza-spiro[4.5]dec-1-ene-8-sulfonyl]-vinyl}-phenyl)-methyl-carbamic acid 2-hydroxy-ethyl ester], the “cAMP production activity (%)” value was determined as 87%.

In the case of `Cc1cc(N(C)C(=O)N(C)C)cc(C)c1/C=C/S(=O)(=O)N1CCC2(CC1)N=C(c1cccc(OC(F)(F)F)c1)NC2=O` [Compound 1013, 1-(3,5-Dimethyl-4-{(E)-2-[4-oxo-2-(3-trifluoromethoxy-phenyl)-1,3,8-triaza-spiro[4.5]dec-1-ene-8-sulfonyl]-vinyl}-phenyl)-1,3,3-trimethyl-urea], the “cAMP production activity (%)” value is given as 48%.

As to `CNC(=O)N(C)c1cc(C)c(/C=C/S(=O)(=O)N2CCC3(CC2)N=C(c2cccc(OC(F)(F)F)c2)NC3=O)c(C)c1` [Compound 1014, 1-(3,5-dimethyl-4-{(E)-2-[4-oxo-2-(3-trifluoromethoxy-phenyl)-1,3,8-triaza-spiro[4.5]dec-1-ene-8-sulfonyl]-vinyl}-phenyl)-1,3-dimethyl-urea], the “cAMP production activity (%)” value worked out at 84%.

Take `Cc1cc(N(C)C(N)=O)cc(C)c1/C=C/S(=O)(=O)N1CCC2(CC1)N=C(c1cccc(OC(F)(F)F)c1)NC2=O` [Compound 1015, 1-(3,5-dimethyl-4-{(E)-2-[4-oxo-2-(3-trifluoromethoxy-phenyl)-1,3,8-triaza-spiro[4.5]dec-1-ene-8-sulfonyl]-vinyl}-phenyl)-1-methyl-urea]: the “cAMP production activity (%)” value is 83%.

Regarding `CNc1cc(C)c(/C=C/S(=O)(=O)N2CCC3(CC2)N=C(c2cccc(SC(F)(F)F)c2)NC3=O)c(C)c1` [Compound 1016, 8-[(E)-2-(2,6-Dimethyl-4-methylamino-phenyl)-ethenesulfonyl]-2-(3-trifluoromethylsulfanyl-phenyl)-1,3,8-triaza-spiro[4.5]dec-1-en-4-one], the “cAMP production activity (%)” value amounted to 92%.

Turning to `Cc1cc(N(C)C(N)=O)cc(C)c1/C=C/S(=O)(=O)N1CCC2(CC1)N=C(c1ccc(F)c(C(F)(F)F)c1)NC2=O` [Compound 1017, 1-(4-{(E)-2-[2-(4-Fluoro-3-trifluoromethyl-phenyl)-4-oxo-1,3,8-triaza-spiro[4.5]dec-1-ene-8-sulfonyl]-vinyl}-3,5-dimethyl-phenyl)-1-methyl-urea], the “cAMP production activity (%)” value is given as 101%.

The record behind these values is patent US9169254B2, “Spiroimidazolone derivative” (Chugai Seiyaku Kabushiki Kaisha, priority 2009, dated 2015).
